Measurements published in patent US9321776B2, “Isochromene derivatives as phoshoinositide 3-kinases inhibitors” (CHIESI FARMACEUTICI S.p.A., priority 2013, dated 2016).
Counter-ions that a name gives are not always drawn.

Experiments:
Experiment in all cases: PI3K enzyme inhibitory activity in the cell free assay (ADP-Glo Kinase Assay)
Type in all cases: biochemical
PI3Kβ = biological target: T1, PI3Kβ (Homo sapiens, UniProt P42338); conditions: human recombinant PI3Kβ, ATP 100 μM; read-out: PI3K beta inhibition
T1 construct: purchased Millipore Ltd (Billerica, Mass.)
T1 sequence (P42338 whole entry): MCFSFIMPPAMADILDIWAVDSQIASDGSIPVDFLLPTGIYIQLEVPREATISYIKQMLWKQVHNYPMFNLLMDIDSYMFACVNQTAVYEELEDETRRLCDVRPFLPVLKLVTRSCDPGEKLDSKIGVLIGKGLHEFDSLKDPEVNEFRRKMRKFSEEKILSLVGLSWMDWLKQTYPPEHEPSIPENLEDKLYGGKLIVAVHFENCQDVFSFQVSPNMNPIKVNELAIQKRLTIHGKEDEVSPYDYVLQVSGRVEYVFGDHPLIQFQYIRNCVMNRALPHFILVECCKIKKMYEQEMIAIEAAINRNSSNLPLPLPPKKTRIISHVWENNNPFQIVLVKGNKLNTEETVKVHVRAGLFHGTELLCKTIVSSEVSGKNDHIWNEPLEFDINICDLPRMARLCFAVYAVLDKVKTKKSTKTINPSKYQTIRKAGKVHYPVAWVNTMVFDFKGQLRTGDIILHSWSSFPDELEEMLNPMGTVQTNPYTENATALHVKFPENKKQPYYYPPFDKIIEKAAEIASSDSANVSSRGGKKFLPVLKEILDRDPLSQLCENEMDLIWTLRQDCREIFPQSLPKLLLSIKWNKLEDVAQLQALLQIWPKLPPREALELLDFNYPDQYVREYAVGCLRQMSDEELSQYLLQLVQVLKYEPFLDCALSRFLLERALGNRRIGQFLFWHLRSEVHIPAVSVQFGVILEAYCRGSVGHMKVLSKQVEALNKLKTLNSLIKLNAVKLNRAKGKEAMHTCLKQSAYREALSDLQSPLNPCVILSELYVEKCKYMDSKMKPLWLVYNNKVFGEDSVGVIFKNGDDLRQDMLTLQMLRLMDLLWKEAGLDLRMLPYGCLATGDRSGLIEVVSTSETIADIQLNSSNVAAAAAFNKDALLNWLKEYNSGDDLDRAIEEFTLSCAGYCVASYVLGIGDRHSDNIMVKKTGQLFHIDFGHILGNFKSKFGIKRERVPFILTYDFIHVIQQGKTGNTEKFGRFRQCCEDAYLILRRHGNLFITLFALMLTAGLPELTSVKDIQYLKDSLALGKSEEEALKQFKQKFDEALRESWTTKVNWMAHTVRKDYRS

PI3Kδ = biological target: T2, PI3Kδ (Homo sapiens, UniProt O00329); conditions: human recombinant PI3Kδ, ATP 80 μM; read-out: PI3K delta inhibition
T2 construct: purchased Millipore Ltd (Billerica, Mass.)
T2 sequence (O00329 1-1044): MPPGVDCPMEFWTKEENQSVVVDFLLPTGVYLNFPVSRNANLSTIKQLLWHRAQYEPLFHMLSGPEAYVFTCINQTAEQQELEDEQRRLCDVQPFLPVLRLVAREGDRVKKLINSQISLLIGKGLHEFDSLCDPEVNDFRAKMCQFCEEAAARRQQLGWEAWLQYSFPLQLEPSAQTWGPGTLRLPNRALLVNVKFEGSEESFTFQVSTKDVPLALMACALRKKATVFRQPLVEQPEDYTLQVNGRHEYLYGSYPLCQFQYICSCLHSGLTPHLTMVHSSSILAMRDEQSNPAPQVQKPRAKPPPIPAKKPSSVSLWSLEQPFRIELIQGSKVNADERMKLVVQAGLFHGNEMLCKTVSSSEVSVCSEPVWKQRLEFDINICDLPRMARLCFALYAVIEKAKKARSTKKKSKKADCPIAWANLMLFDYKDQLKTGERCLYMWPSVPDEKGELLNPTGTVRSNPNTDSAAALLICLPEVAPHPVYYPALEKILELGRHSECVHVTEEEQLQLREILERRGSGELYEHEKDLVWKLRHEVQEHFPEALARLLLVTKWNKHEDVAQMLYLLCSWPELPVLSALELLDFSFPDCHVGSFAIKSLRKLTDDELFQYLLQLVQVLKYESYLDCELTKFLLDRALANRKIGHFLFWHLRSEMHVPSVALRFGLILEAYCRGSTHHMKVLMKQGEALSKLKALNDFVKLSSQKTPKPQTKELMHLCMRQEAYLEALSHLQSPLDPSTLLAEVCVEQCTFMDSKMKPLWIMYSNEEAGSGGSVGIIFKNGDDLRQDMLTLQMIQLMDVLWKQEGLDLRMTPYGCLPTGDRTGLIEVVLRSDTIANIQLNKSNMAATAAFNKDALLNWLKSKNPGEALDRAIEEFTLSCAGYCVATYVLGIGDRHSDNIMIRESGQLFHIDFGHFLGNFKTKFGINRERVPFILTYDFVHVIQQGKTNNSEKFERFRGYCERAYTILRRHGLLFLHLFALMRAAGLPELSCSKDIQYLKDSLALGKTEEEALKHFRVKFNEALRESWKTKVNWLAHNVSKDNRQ

PI3Kα = biological target: T3, PI3Kα (Homo sapiens, UniProt P42336); conditions: human recombinant PI3Kα, ATP 50 μM; read-out: PI3K alpha inhibition
T3 construct: purchased Millipore Ltd (Billerica, Mass.)
T3 sequence (P42336 whole entry): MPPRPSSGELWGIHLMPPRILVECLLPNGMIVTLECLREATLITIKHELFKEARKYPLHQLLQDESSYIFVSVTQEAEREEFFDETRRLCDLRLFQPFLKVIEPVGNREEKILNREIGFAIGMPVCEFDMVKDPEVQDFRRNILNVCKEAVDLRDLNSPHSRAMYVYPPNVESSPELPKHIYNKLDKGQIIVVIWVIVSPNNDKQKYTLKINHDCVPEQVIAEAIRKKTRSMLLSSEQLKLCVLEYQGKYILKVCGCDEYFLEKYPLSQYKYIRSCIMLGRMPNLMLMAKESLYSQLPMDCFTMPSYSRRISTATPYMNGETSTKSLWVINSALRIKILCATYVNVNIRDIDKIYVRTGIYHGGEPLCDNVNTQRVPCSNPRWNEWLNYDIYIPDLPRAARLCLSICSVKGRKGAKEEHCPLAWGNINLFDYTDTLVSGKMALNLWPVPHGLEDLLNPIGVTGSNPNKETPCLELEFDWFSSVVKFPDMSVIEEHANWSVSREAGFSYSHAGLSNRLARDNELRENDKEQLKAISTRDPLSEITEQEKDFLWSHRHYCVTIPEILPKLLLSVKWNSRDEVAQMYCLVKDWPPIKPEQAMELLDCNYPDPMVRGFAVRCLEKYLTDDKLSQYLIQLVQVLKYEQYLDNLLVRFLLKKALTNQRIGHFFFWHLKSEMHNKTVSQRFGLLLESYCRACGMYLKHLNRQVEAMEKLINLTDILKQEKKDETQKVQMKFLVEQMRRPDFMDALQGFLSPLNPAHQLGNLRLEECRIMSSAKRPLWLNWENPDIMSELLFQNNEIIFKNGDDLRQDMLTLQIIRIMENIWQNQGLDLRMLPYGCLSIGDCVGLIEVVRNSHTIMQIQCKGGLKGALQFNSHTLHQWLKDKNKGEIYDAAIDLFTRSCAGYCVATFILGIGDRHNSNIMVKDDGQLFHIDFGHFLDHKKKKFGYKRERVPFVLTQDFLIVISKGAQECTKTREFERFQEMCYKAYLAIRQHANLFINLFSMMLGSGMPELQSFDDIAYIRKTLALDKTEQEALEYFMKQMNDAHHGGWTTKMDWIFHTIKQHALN

PI3Kγ = biological target: T4, PI3Kγ (Homo sapiens, UniProt P48736); conditions: human recombinant PI3Kγ, ATP 30 μM; read-out: PI3K gamma inhibition
T4 construct: purchased Millipore Ltd (Billerica, Mass.)
T4 sequence (P48736 whole entry): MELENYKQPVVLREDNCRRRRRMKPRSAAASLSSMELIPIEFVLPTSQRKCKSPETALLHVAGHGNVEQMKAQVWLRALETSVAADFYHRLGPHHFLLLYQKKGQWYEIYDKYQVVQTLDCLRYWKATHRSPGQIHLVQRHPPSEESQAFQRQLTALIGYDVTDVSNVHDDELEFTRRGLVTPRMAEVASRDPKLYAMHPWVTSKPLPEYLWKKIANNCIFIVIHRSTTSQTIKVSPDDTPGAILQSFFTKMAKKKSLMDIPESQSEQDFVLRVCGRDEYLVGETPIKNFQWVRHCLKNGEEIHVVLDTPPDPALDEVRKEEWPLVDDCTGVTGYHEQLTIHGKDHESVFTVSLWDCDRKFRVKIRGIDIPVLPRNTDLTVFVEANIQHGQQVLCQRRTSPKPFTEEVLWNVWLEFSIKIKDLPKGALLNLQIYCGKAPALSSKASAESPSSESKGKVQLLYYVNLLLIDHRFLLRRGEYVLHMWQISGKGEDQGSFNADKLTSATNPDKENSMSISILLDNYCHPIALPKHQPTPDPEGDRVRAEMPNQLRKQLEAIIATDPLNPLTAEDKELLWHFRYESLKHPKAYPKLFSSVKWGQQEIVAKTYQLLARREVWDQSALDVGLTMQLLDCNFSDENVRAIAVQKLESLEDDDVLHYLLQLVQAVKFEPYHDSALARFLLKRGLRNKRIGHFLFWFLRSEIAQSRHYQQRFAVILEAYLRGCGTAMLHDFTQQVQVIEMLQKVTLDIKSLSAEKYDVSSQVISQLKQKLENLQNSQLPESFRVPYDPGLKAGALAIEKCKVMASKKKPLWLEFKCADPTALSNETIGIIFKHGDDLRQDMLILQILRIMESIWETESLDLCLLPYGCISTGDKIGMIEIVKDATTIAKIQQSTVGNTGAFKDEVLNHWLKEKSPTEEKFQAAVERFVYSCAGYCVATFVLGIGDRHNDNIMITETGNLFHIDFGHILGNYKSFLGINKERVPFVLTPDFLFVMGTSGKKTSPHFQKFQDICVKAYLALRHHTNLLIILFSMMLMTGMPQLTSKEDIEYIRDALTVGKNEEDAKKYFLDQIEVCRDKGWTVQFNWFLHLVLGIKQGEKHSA

SMILES | IC50 (PI3Kβ) | IC50 (PI3Kδ) | IC50 (PI3Kα) | IC50 (PI3Kγ)
Cc1cccc(-c2c(C(C)n3nc(-c4cc(O)cc(F)c4)c4c(N)ncnc43)oc(=O)c3ccccc23)c1 (stereo not shown) [Example 41, 3-(1-(4-Amino-3-(3-fluoro-5-hydroxyphenyl)-1H-pyrazolo[3,4-d]pyrimidin-1-yl)ethyl)-4-m-tolyl-1H-isochromen-1-one] | 10 to 1000 nM | < 10 nM | 10 to 1000 nM | 10 to 1000 nM
CC(Nc1ncnc2[nH]cnc12)c1oc(=O)c2ccccc2c1C1=CCN(C)CC1 (stereo not shown) [Example 45, 3-(1-(9H-purin-6-ylamino)ethyl)-4-(1-methyl-1,2,3,6-tetrahydropyridin-4-yl)-1H-isochromen-1-one hydrochloride] | > 1000 nM | < 10 nM | > 1000 nM | > 1000 nM
CC(Nc1ncnc2[nH]cnc12)c1oc(=O)c2ccccc2c1-c1ccc(CN2CCOCC2)cc1 (stereo not shown) [Example 47, 3-(1-(9H-purin-6-ylamino)ethyl)-4-(4-(morpholinomethyl)phenyl)-1H-isochromen-1-one hydrochloride] | > 1000 nM | 10 to 1000 nM | > 1000 nM | 10 to 1000 nM
CC(c1oc(=O)c2ccccc2c1-c1ccccc1)n1nc(-c2cnc(N)s2)c2c(N)ncnc21 (stereo not shown) [Example 59, 3-(1-(4-amino-3-(2-aminothiazol-5-yl)-1H-pyrazolo[3,4-d]pyrimidin-1-yl)ethyl)-4-phenyl-1H-isochromen-1-one hydrochloride] | 10 to 1000 nM | < 10 nM | 10 to 1000 nM | 10 to 1000 nM
COc1ccc(-c2nn(C(C)c3oc(=O)c4ccccc4c3-c3ccccc3)c3ncnc(N)c23)cn1 (stereo not shown) [Example 60, 3-(1-(4-amino-3-(6-methoxypyridin-3-yl)-1H-pyrazolo[3,4-d]pyrimidin-1-yl)ethyl)-4-phenyl-1H-isochromen-1-one] | 10 to 1000 nM | < 10 nM | 10 to 1000 nM | 10 to 1000 nM
CC(=O)Nc1ncc(-c2nn(C(C)c3oc(=O)c4ccccc4c3-c3ccccc3)c3ncnc(N)c23)s1 (stereo not shown) [Example 62, N-(5-(4-amino-1-(1-(1-oxo-4-phenyl-1H-isochromen-3-yl)ethyl)-1H-pyrazolo[3,4-d]pyrimidin-3-yl)thiazol-2-yl)acetamide] | 10 to 1000 nM | < 10 nM | 10 to 1000 nM | 10 to 1000 nM
CC(c1oc(=O)c2ccccc2c1C1=CCCN(C)C1)n1nc(-c2cc(O)cc(F)c2)c2c(N)ncnc21 (stereo not shown) [Example 63, 3-(1-(4-amino-3-(3-fluoro-5-hydroxyphenyl)-1H-pyrazolo[3,4-d]pyrimidin-1-yl)ethyl)-4-(1-methyl-1,2,5,6-tetrahydropyridin-3-yl)-1H-isochromen-1-one hydrochloride] | 10 to 1000 nM | < 10 nM | 10 to 1000 nM | 10 to 1000 nM
CC(c1oc(=O)c2ccccc2c1C1=CCN(Cc2ccncc2)CC1)n1nc(-c2cc(O)cc(F)c2)c2c(N)ncnc21 (stereo not shown) [Example 65, 3-(1-(4-amino-3-(3-fluoro-5-hydroxyphenyl)-1H-pyrazolo[3,4-d]pyrimidin-1-yl)ethyl)-4-(1-(pyridin-4-ylmethyl)-1,2,3,6-tetrahydropyridin-4-yl)-1H-isochromen-1-one hydrochloride] | 10 to 1000 nM | < 10 nM | 10 to 1000 nM | 10 to 1000 nM
CC(c1oc(=O)c2ccccc2c1C1=CCN(CC2CC2)CC1)n1nc(-c2cc(O)cc(F)c2)c2c(N)ncnc21 (stereo not shown) [Example 66, 3-(1-(4-amino-3-(3-fluoro-5-hydroxyphenyl)-1H-pyrazolo[3,4-d]pyrimidin-1-yl)ethyl)-4-(1-(cyclopropylmethyl)-1,2,3,6-tetrahydropyridin-4-yl)-1H-isochromen-1-one hydrochloride] | 10 to 1000 nM | < 10 nM | 10 to 1000 nM | 10 to 1000 nM
CC(c1oc(=O)c2ccccc2c1-c1ccc(CN2CCCCC2)s1)n1nc(-c2cc(O)cc(F)c2)c2c(N)ncnc21 (stereo not shown) [Example 68, 3-(1-(4-amino-3-(3-fluoro-5-hydroxyphenyl)-1H-pyrazolo[3,4-d]pyrimidin-1-yl)ethyl)-4-(5-(piperidin-1-ylmethyl)thiophen-2-yl)-1H-isochromen-1-one hydrochloride] | 10 to 1000 nM | < 10 nM | 10 to 1000 nM | 10 to 1000 nM
CC(c1oc(=O)c2ccccc2c1-c1cccc(C(=O)NCCN(C)C)c1)n1nc(-c2cc(O)cc(F)c2)c2c(N)ncnc21 (stereo not shown) [Example 70, 3-(3-(1-(4-amino-3-(3-fluoro-5-hydroxyphenyl)-1H-pyrazolo[3,4-d]pyrimidin-1-yl)ethyl)-1-oxo-1H-isochromen-4-yl)-N-(2-(dimethylamino)ethyl)benzamide hydrochloride] | 10 to 1000 nM | < 10 nM | > 1000 nM | 10 to 1000 nM
CC(=O)N1CC=C(c2c(C(C)n3nc(-c4cncc(O)c4)c4c(N)ncnc43)oc(=O)c3ccccc23)CC1 (stereo not shown) [Example 71, 4-(1-acetyl-1,2,3,6-tetrahydropyridin-4-yl)-3-(1-(4-amino-3-(5-hydroxypyridin-3-yl)-1H-pyrazolo[3,4-d]pyrimidin-1-yl)ethyl)-1H-isochromen-1-one] | 10 to 1000 nM | < 10 nM | 10 to 1000 nM | 10 to 1000 nM
CC(=O)N1CC=C(c2c(C(C)n3nc(-c4cc(O)cc(F)c4)c4c(N)ncnc43)oc(=O)c3ccccc23)CC1 (stereo not shown) [Example 72, 4-(1-acetyl-1,2,3,6-tetrahydropyridin-4-yl)-3-(1-(4-amino-3-(3-fluoro-5-hydroxyphenyl)-1H-pyrazolo[3,4-d]pyrimidin-1-yl)ethyl)-1H-isochromen-1-one] | 10 to 1000 nM | < 10 nM | 10 to 1000 nM | 10 to 1000 nM
CC(c1oc(=O)c2ccccc2c1C1=CC2CCC(C1)N2C)n1nc(-c2cc(O)cc(F)c2)c2c(N)ncnc21 (stereo not shown) [Example 92, 3-(1-(4-amino-3-(3-fluoro-5-hydroxyphenyl)-1H-pyrazolo[3,4-d]pyrimidin-1-yl)ethyl)-4-(8-methyl-8-azabicyclo[3.2.1]oct-2-en-3-yl)-1H-isochromen-1-one hydrochloride] | 10 to 1000 nM | 10 to 1000 nM | 10 to 1000 nM | > 1000 nM
Cc1ncc(-c2nn(C(C)c3oc(=O)c4ccccc4c3-c3ccccc3)c3ncnc(N)c23)cc1O (stereo not shown) [Example 99, 3-(1-(4-amino-3-(5-hydroxy-6-methylpyridin-3-yl)-1H-pyrazolo[3,4-d]pyrimidin-1-yl)ethyl)-4-phenyl-1H-isochromen-1-one] | 10 to 1000 nM | < 10 nM | 10 to 1000 nM | 10 to 1000 nM
CC(c1oc(=O)c2ccccc2c1C1=CCC(N)CC1)n1nc(-c2cc(O)cc(F)c2)c2c(N)ncnc21 (stereo not shown) [Example 103, 3-(1-(4-amino-3-(3-fluoro-5-hydroxyphenyl)-1H-pyrazolo[3,4-d]pyrimidin-1-yl)ethyl)-4-(4-aminocyclohex-1-en-1-yl)-1H-isochromen-1-one hydrochloride] | 10 to 1000 nM | < 10 nM | 10 to 1000 nM | > 1000 nM
CC(NC(=O)c1c(N)nn2cccnc12)c1oc(=O)c2ccccc2c1-c1ccccc1 (stereo not shown) [Example 110, 2-amino-N-(1-(1-oxo-4-phenyl-1H-isochromen-3-yl)ethyl)pyrazolo[1,5-a]pyrimidine-3-carboxamide] | 10 to 1000 nM | 10 to 1000 nM | 10 to 1000 nM | 10 to 1000 nM
CC(Nc1ncnc2[nH]cnc12)c1oc(=O)c2ccccc2c1-c1cncs1 (stereo not shown) [Example 117, 3-(1-(9H-purin-6-ylamino)ethyl)-4-(thiazol-5-yl)-1H-isochromen-1-one] | > 1000 nM | < 10 nM | 10 to 1000 nM | 10 to 1000 nM
CC(c1oc(=O)c2ccccc2c1-c1ccccc1)n1nc2ncnc(N)c2c1-c1cc(O)cc(F)c1 (stereo not shown) [Example 118, 3-(1-(4-amino-3-(3-fluoro-5-hydroxyphenyl)-2H-pyrazolo[3,4-d]pyrimidin-2-yl)ethyl)-4-phenyl-1H-isochromen-1-one] | > 1000 nM | 10 to 1000 nM | 10 to 1000 nM | > 1000 nM
